Test results: patent US20160303112A1 (Laguna Pharmaceuticals, Inc., priority 2013, published 2016)

How the values were obtained:
[1] = Plasma concentrations after a single 300 mg dose of vanoxerine in 25 patients (Example 1); type: in vivo, human; conditions: low concentration group
Protocol: Each patient gave samples before administration of their dose, and then again at nine further time points, 30 minutes after administration, 1, 2, 3, 4, 6, 8, 12, and 24 hours post administration.

[2] = Plasma concentration of vanoxerine in individual arrhythmia patients (Example 2); type: in vivo, human
cardiac arrhythmia = test: Conversion to normal sinus rhythm in individual patients (Example 2); type: in vivo, human; conditions: second patient, supraventricular tachycardia, 200 mg + 200 mg
Protocol: Accordingly a further dose was required and administered to the patient. […] Wherein the patient is instructed to utilize a monitoring device with instructions on pricking the finger and providing a blood sample, for testing of the blood. Wherein the plasma concentration has not met at least 60 ng/ml, the second dose is to be taken to ensure that the patient achieves suitable plasma concentrations and converts to normal sinus rhythm.

[3] = human, in vivo, 50 mg
Description: The results are listed below in Table 7.

[4] = Daily doses for 14 days in fourteen healthy patients (Example 4); type: in vivo, human; conditions: 25, 75 and 125 mg daily for 14 days
Protocol: A standardized meal was served 15 minutes prior to each dosing.

"pure" atrial flutter = test: Conversion of Atrial Flutter (Example 6); type: in vivo, human; conditions: any time within 24 hours, N 4
Protocol: The vanoxerine or identical appearing placebo was randomly assigned and administered in a double-blinded fashion. Definition of “pure” atrial flutter: only Atrial Flutter (no AF) seen at −30, −15, and 0 time points. Conversion at any time within 24 hours.

[5] = Adverse events in the placebo-controlled study (Example 6); type: in vivo, human
Description: The vanoxerine or identical appearing placebo was randomly assigned and administered in a double-blinded fashion.

[6] = healthy subjects; cited from earlier work
[7] = first patient, atrial fibrillation, 200 mg
[8] = second patient, supraventricular tachycardia, first 200 mg dose
[9] = third patient, premature ventricular contractions, 200 mg

Highest plasma level at any time point [1]: ~40 ng/mL
TMax [3]: TMax 1.27 +− 0.5 hr (0.5-2.0)
Compound: Fc1ccc(C(OCCN2CCN(CCCc3ccccc3)CC2)c2ccc(F)cc2)cc1 [Vanoxerine, 1-[2-[bis(4-fluorophenyl)methoxy]ethyl]-4-(3-phenylpropyl)piperazine]
maximum concentration in the plasma [2, 7]: about 70 ng/ml
time of maximum concentration post administration [2, 7]: 60 min
concentration at 180 minutes ([2]; human, plasma, second patient, 180 minutes after first dose, further 200 mg given at 120 minutes): 60 ng/mL
maximum concentration in the plasma [2, 8]: about 20 ng/ml
time of maximum concentration post administration [2, 8]: 60 min
maximum concentration in the plasma [2, 9]: about 150 ng/ml
time of maximum concentration post administration [2, 9]: 60 min
time of conversion to normal sinus rhythm post administration of the first dose (cardiac arrhythmia): about 6 hours
steady state serum levels versus dose [4]: disproportionately and statistically greater levels at higher doses
Conversion of Atrial Flutter ("pure" atrial flutter; 200 mg): 50%
Conversion of Atrial Flutter ("pure" atrial flutter; 300 mg): 75%
Conversion of Atrial Flutter ("pure" atrial flutter; 400 mg): 75%
number of AEs reported ([5]; 200 mg (22)): reporting 8 AEs
number of SAE ([5]; 200 mg (22)): (1 SAE)
number of AEs reported ([5]; 300 mg (25)): reporting 12 AEs
number of AEs reported ([5]; 400 mg (25)): 23 AEs
number of SAE ([5]; 400 mg (25)): (1 SAE)
proarrhythmia ([5]; 200, 300, 400 mg): absence of proarrhythmia
tolerability ([5]; all doses (200, 300, 400 mg)): well tolerated
serious adverse events ([5]; one at 200 mg, one at 400 mg, neither related to the study drug): only two serious adverse events
serum concentrations [6]: unexpected fluctuations in serum concentrations
